Test results: patent US20250255981A1, “IMMUNOMODULATORY ANTIBODY-DRUG CONJUGATES” (Seagen Inc., priority 2022, published 2025)

Tests used:
Renca tumor-bearing mice = assay: In vivo cytokine assay, Renca tumor-bearing mice; parameters: species or system mouse; RANTES in plasma / TNFa in plasma: unit not given here; conditions: for IFNγ in plasma / IL1β in plasma / IL12p70 in plasma / IL-6 in plasma / IL-10 in plasma / IP10 in plasma / MCP-1 in plasma / MIP1α in plasma / MIP1β in plasma / RANTES in plasma / TNFa in plasma: 1.48 mg/kg
Method: Cytokines were measured in mouse plasma harvested at 3, 6, 24, or 48 hours after treatment with compounds or ADCs using a Milliplex MAP mouse cytokine/chemokine magnetic bead panel assay kit (MCYTOMAG-70k custom 11-plex kit: MCP1, MIP1a, MIP1(3, TNFα, IFNγ, IL-10, IL-12p70, IL-6, IL-1β, IP10, RANTES) and analyzed using a Luminex™ MAGPIX™ Instrument System. Values that were outside of the standard curve range (<3.2 or […]) were either excluded from calculation of the mean values or, when indicated, converted to […] for calculation of the mean values.
Renca cancer cells (ATCC) were cultured in RPMI-1640 (ATCC) with 10% heat-inactivated fetal bovine serum, Pen-Strep (100 U/mL-100 μg/mL), MEM non-essential amino acids (1×), sodium pyruvate (1 mM), and L-glutamine (2 mM). Renca cancer cells were implanted (2*10^6 cells in 200 μL 25% Matrigel) subcutaneously into Balb/c female mice. In some experiments, Renca tumor cells were engineered to express the indicated murine or human target antigen.
(§1) When tumor volumes reached 100 mm^3, the mice were dosed with either compounds or ADCs by intraperitoneal or intravenous injection at the indicated dosing schedule and tumor volumes were monitored twice weekly. Compounds were formulated in 40% PEG400 in saline.
(§2) A syngeneic system was used to assess the ability of the STING agonist ADCs to induce immune responses in vivo and drive an anti-tumor immune response. The Renca system is a subcutaneous, mouse renal adenocarcinoma model. Female Balb/c mice were implanted with 2×10^6 Renca cells subcutaneously in the flank on day 0. When mean tumor size of 100 mm^3 (measured by using the formula Volume (mm^3)=0.5*Length*Width^2 where length is the longer dimension) was reached mice were randomized into treatment groups of ≥5 mice per group. Animals were then treated intraperitoneally (ADCs or compounds) or intravenously (compounds) with the indicated treatment every 7 days, for 3 doses total (or as indicated). Tumor length and width and the weight of the animals was measured throughout the study and tumor volume was calculated using the formula above. Animals were followed until the tumor volume reached ˜1000 mm^3; animals were then euthanized.

[1] = test system: wild type (WT) murine bone marrow-derived macrophages; assay: Bone marrow-derived macrophage assay, wild type; format: cell-based, mouse; conditions: 24 hours
Method: Potency of the compounds described herein was evaluated using mouse bone-marrow derived macrophages cultured from wild type (C57BL/6J, the Jackson Laboratory #000664) or STING-deficient (C57BL/6J-Sting1^gt/J, the Jackson Laboratory #017537) mice. Briefly, mouse bone marrow cells were cultured for 7-10 days in RPMI-1640 (Gibco) with 10% heat-inactivated fetal bovine serum, Pen-Strep (100 U/mL-100 […], Gibco), HEPES (10 mM, Gibco), sodium pyruvate (1 mM, Gibco), GlutaMAX (1×, Gibco), beta-mercaptoethanol ([…], Gibco) and 20-40 ng/mL murine M-CSF (Peprotech, #315-02). Cells were plated in a 96-well flat bottom tissue culture-treated clear polystyrene plate (Corning Costar #3596) at ˜100,000 cells per well in 200 μL with the indicated concentration of the compound. The supernatant was harvested at 24 hours and cytokines were measured using a Milliplex MAP mouse cytokine/chemokine magnetic bead panel assay kit (MCYTOMAG-70k custom 11-plex kit: MCP1, MIP1α, MIP1β, TNFα, IFNγ, IL-10, IL-12p70, IL-1β, IL-6, IP10, RANTES) and analyzed using a Luminex™ MAGPIX™ Instrument System.

CT26 cancer cells = assay: In vivo anti-tumor activity, CT26 tumor model; parameters: species or system mouse; conditions: CT26, q7dx3
Method: CT26 cancer cells (ATCC) were cultured in RPMI 1640 modified with 1 mM Sodium Pyruvate, 10 mM HEPES, 2.8 mL 45% Glucose (1.25 g) and supplemented with 10% fetal bovine serum and 1% Pen/Strep/Glutamine. CT26 cancer cells were implanted (0.5*10^6 cells in 200 uL serum-free RPMI 1640) subcutaneously into Balb/c mice.

[2] = test system: THP1-Dual™ cells (IRF-Lucia luciferase reporter); assay: THP1-Dual™ cell reporter assay; format: cell-based, human
Method in brief: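 THP1-Dual cells (~100,000 per well) exposed to compound or ADC in supplemented RPMI-1640 with 10% FBS; supernatant taken at 24 h for compounds or 48 h for ADCs. Secreted IRF-driven Lucia luciferase measured by luminescence with QUANTI-Luc reagent.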

Renca cancer cells = assay: In vivo anti-tumor activity, Renca tumor model
Method: In some experiments, Renca tumor cells were engineered to express the indicated murine or human target antigen.
as §1, §2

MOLM-13 = assay: Cancer cell direct cytotoxicity assay, MOLM-13; format: cell-based, human; conditions: 96 hours, read-out: Compound X50
Method: (§3) Cancer cells were counted and plated in 40 μL complete growth media in 384-well, white-walled tissue culture treated plates (Corning). Cell plates were incubated at 37° C. and with 5% CO2 overnight to allow the cells to equilibrate. Stock solutions containing ADCs or free drugs were serially diluted in RPMI-1640+20% fetal bovine serum (FBS). 10 μL of each concentration were then added to each cell plate in duplicate. Cells were then incubated at 37° C. and with 5% CO2 for 96 hours, upon which, the cell plates were removed from the incubator and allowed to cool to room temperature for 30 minutes prior to analysis. CellTiter-Glo® luminescent assay reagent (Promega Corporation, Madison, WI) was prepared according to Promega's protocol. 10 μL of CellTiter-Glo® were added to assay plates using a Formulatrix Tempest liquid handler (Formulatrix) and the plates were protected from light for 30 minutes at room temperature. The luminescence of the samples was measured using an EnVision Multimode plate reader (Perkin Elmer, Waltham, MA). Raw data were analyzed in Graphpad Prism (San Diego, CA) using a nonlinear, 4-parameter curve fit model [Y=Bottom+(Top-Bottom)/(1+10^((Log EC50−X)*HillSlope))]. Results are reported as X50 values, which are defined as the concentration of ADC or free drug required to reduce cell viability to 50%.

786-O = assay: Cancer cell direct cytotoxicity assay, 786-O; format: cell-based, human; conditions: 96 hours, concentration required to reduce cell viability to 50%, read-out: Compound X50
Method: as §3

Ls174T = assay: Cancer cell direct cytotoxicity assay, Ls174T; format: cell-based, human; conditions: 96 hours, read-out: Compound X50
Method: as §3

BxPC3 = assay: Cancer cell direct cytotoxicity assay, BxPC3; format: cell-based, human; conditions: 96 hours, read-out: Compound X50
Method: as §3

L540cy = assay: Cancer cell direct cytotoxicity assay, L540cy; format: cell-based, human; conditions: 96 hours, read-out: Compound X50
Method: as §3

DEL = assay: Cancer cell direct cytotoxicity assay, DEL; format: cell-based, human; conditions: 96 hours, read-out: Compound X50
Method: as §3

MDAMB231 = assay: Cancer cell direct cytotoxicity assay, MDAMB231; format: cell-based, human; conditions: 96 hours, read-out: Compound X50
Method: as §3

A2058 = assay: Cancer cell direct cytotoxicity assay, A2058; format: cell-based, human; conditions: 96 hours, read-out: Compound X50
Method: as §3

Karpas299 = assay: Cancer cell direct cytotoxicity assay, Karpas299; format: cell-based, human; conditions: 96 hours, read-out: Compound X50
Method: as §3

DELBVR = assay: Cancer cell direct cytotoxicity assay, DELBVR; format: cell-based, human; conditions: 96 hours, read-out: Compound X50
Method: as §3

SU-DHL-4 = assay: Cancer cell direct cytotoxicity assay, SU-DHL-4; format: cell-based, human; conditions: 96 hours, read-out: Compound X50
Method: as §3

## CCn1nc(C)cc1C(=O)Nc1nc2cc(C(N)=O)cc(O)c2n1C/C=C/Cn1c(NC(=O)c2cc(C)nn2CC)nc2cc(C(N)=O)cc(OC)c21 [compound 1, (E)-1-(4-(5-carbamoyl-2-(1-ethyl-3-methyl-1H-pyrazole-5-carboxamido)-7-hydroxy-1H-benzo[d]imidazol-1-yl)but-2-en-1-yl)-2-(1-ethyl-3-methyl-1H-pyrazole-5-carboxamido)-7-methoxy-1H-benzo[d]imidazole-5-carboxamide]
Renca tumor-bearing mice; 3 h after treatment
  IFNγ in plasma: < 3.2 pg/mL
  IL1β in plasma: 0.7 pg/mL
  IL12p70 in plasma: 174 pg/mL
  IL-6 in plasma: 95.7 pg/mL
  IL-10 in plasma: 48.8 pg/mL
  IP10 in plasma: 703 pg/mL
  MCP-1 in plasma: 168 pg/mL
  MIP1α in plasma: 55.6 pg/mL
  MIP1β in plasma: 362 pg/mL
  RANTES in plasma: 10.6
  TNFa in plasma: 3.6
Renca tumor-bearing mice; 6 h after treatment
  IFNγ in plasma: 0.2 pg/mL
  IL1β in plasma: 1.5 pg/mL
  IL12p70 in plasma: < 3.2 pg/mL
  IL-6 in plasma: 6.8 pg/mL
  IL-10 in plasma: 0.8 pg/mL
  IP10 in plasma: 3390 pg/mL
  MCP-1 in plasma: 796 pg/mL
  MIP1α in plasma: 38.9 pg/mL
  MIP1β in plasma: 169 pg/mL
  RANTES in plasma: 18.4
  TNFa in plasma: 1.9
Renca tumor-bearing mice; 24 h after treatment
  IFNγ in plasma: < 3.2 pg/mL
  IL1β in plasma: 0.8 pg/mL
  IL12p70 in plasma: 140 pg/mL
  IL-6 in plasma: 13.5 pg/mL
  IL-10 in plasma: 34.6 pg/mL
  IP10 in plasma: 551 pg/mL
  MCP-1 in plasma: 333 pg/mL
  MIP1α in plasma: 69.9 pg/mL
  MIP1β in plasma: 70.7 pg/mL
  RANTES in plasma: 15.6
  TNFa in plasma: 2.0
Renca tumor-bearing mice; plasma
  systemic pro-inflammatory cytokine (IL-6 and TNF) production: induced very little pro-inflammatory cytokine (IL-6 and TNF) production
[1]
  cytokine production: induced cytokine production
CT26 cancer cells
  tumor growth: minimal tumor growth delay
[2]; free drug, 24 h (48 h elsewhere in the source)
  relative potency of free drug, Lucia reporter: significantly more potent than (2′, 3′)-Rp,Rpc-diAMPS disodium (Compound B)
Renca cancer cells; Renca, q7dx3
  tumor growth / anti-tumor activity: some tumor growth delay was observed
Renca cancer cells; after the 1st and 2nd dose of the treatment
  average weight loss: < −5%

## CCn1nc(C)cc1C(=O)Nc1nc2cc(C(N)=O)cc(OC)c2n1C/C=C/Cn1c(NC(=O)c2cc(C)nn2CC)nc2cc(C(N)=O)cc(OCCCN(C)C(=O)CCN3C(=O)CC(SC[C@H](N)C(=O)O)C3=O)c21 (stereo partly drawn) [compound 16]
MOLM-13
  IC50: 27 nM
786-O
  IC50: > 1000 nM
Ls174T
  IC50: > 1000 nM
BxPC3
  IC50: > 1000 nM
L540cy
  IC50: 29 nM
DEL
  IC50: 4 nM
MDAMB231
  IC50: > 1000 nM
[2]; small molecules, 24 h, >10,000 nM = minimal activity up to 10 μM, some values average of multiple experiments, read-out: EC50, Lucia reporter signal
  EC50: 52 nM
A2058
  IC50: > 1000 nM
Karpas299
  IC50: > 1000 nM
DELBVR
  IC50: 7 nM
SU-DHL-4
  IC50: > 1000 nM
